# Source: US9345682B2, “Inhibition of STAT3 signal transduction for human cancer therapy” (University of South Florida, priority 1999, dated 2016)
# Legend:
# Bcl-2 = Bcl-2 expression (RT-PCR, Western blot) in U266 cells; assay type: cell-based, human; settings: AG490
# Method: Cells are lysed in a buffer composed of 50 mM Tris-Cl, pH 7.4, 5 mM EDTA, 150 mM NaCl, and 0.5% Triton-X 100 containing 1 mg/ml leupeptin and aprotinin, and 1 mM PMSF. Protein content of the cell lysates is quantified by the Bradford assay (Bio-Rad), and […] total protein is dissolved in Laemmli SDS-PAGE sample buffer prior to separation by 10% SDS-PAGE. Proteins are transferred to PVDF membrane and Western blot analysis is performed by standard techniques with ECL detection (Amersham). The Bcl-xL antibody, clone 124 (Dako), is used at a 1:2000 dilution. The Bcl-xL, antibody, clone S-18 (Santa Cruz Biotechnology), is used at a 1:500 dilution. Blots are quantified by densitometry and expression levels were normalized to b-actin (Sigma).
# Total RNA is isolated by lysis in guanidine isothiocyanate followed by centrifugation through a cesium chloride gradient. cDNA is prepared from 200 ng of total RNA in a […] reaction with AMV-RT (Boehringer-Mannheim). […] Tem ml of PCR products are electrophoresed on a 5% acrylamide gel and quantified by phosphorimaging using ImageQuant software (Molecular Dynamics).
# STAT3 = assay: EMSA (SIE probe) of constitutive STAT3 DNA-binding in U266 myeloma cells; assay type: cell-based, human; settings: 50 mM AG490, within 16 to 24 hours
# Method: U266 and RPMI 8226 cell lines are originally obtained from ATCC and maintained in RPMI 1640 medium supplemented with 10% fetal calf serum (FCS). For detection of STATs in primary bone marrow (BM) cells, BM aspirates are diluted 1:2 in phosphate-buffered saline (PBS) and mononuclear cells are separated by the standard Ficoll-Hypaque (Pharmacia LKB Biotechnology) sedimentation procedure. Mononuclear cells are washed twice with PBS, and nuclear extracts are prepared as described below. For inhibitor studies, a minimum of 10^7 U266 cells are treated with 1 mg/ml Sant7 or with […] AG490 (Meydan, et al., 1996, Nature 379:645-648). NIH 3T3 cells overexpressing the human EGF receptor have been described (Garcia, et al., 1997, Immunity 5:449-460).
# Nuclear extracts are prepared as previously described. Briefly, nuclei are isolated and extracted in hypertonic buffer (20 mM HEPES, pH 7.9, 420 mM NaCl, 1 mM EDTA, 1 mM EGTA, 20% glycerol, 20 mM NaF, 1 mM Na3VO4, 1 mM Na2P4O7, 1 mM DTT, 0.5 mM PMSF, 0.1 mM aprotinin, 1 mM leupeptin, and 1 mM antipain). […] Protein-DNA complexes are resolved on 5% non-denaturing polyacrylamide gels and analyzed by autoradiography. […]
# peritoneal macrophages = assay: IL-12-mediated nitric oxide production by macrophages treated in vitro; assay type: cell-based, mice; settings: in vitro treatment of macrophages, 50 mM AG-490
# Method: Nitric oxide production. Peritoneal macrophages (2×10^5/0.2 ml/well) from mice with various treatments are incubated 48 hours. Nitrite accumulation in macrophage supernatants were determined using Griess reagent.
# (§1) In vitro IL-12 activation and AG-490 treatment of macrophages. Peritoneal macrophages (2×10^5/well) are incubated in medium supplemented with either PBS, or rIL-12 (2 ng/ml), or AG-490 ([…]). Forty-eight hours later, the cultures are renewed by addition of fresh medium with either AG-490 or rIL-12 or PBS. Activation of macrophages is determined by nitric oxide production. Macrophage viability is determined by cleavage of tetrazolium salt in an MTT assay.
# [1] = test system: myeloma cells with activated STAT3; assay: In vitro apoptosis assay of murine myeloma cells; assay type: cell-based
# Method: In vitro apoptosis assay. After a 24 hours incubation with LIMEM medium containing […] AG-490, cells are stained with Annexin V-PE and 7-Amino-actinomycin D (PharMingen, San Diego, Calif.). Dual-color fluorescence is measured on a FACScan flow cytometer and analyzed using CellQuest software (Becton Dickinson, Mountain View, Calif.).
# [2] = test system: IL-12-activated peritoneal macrophages; assay: Viability of IL-12-activated peritoneal macrophages (MTT); assay type: cell-based, mice; settings: 50 mM AG-490
# Method: as §1
# [3] = test system: Bcl-xL overexpressing U266 cells; assay: Drug-induced apoptosis in U266 cells overexpressing Bcl-xL; assay type: cell-based, human; settings: stable U266 clones overexpressing Bcl-xL; 24 h for melphalan and mitoxantrone
# Method: FIG. 23 Enforced Overexpression of Bcl-x Confers Resistance to Chemotherapy. Panel A: U266 cells are transfected with a CMV expression vector encoding Bcl-x, tagged with the FLAG epitope. Several stable, independent clones overexpressing Bcl-xL, as well as empty vector controls (Neo), are isolated and analyzed by Western blot with antibodies to Bcl-xL, or the FLAG epitope tag. B: The indicated cell lines are incubated with either melphalan (LPAM) or mitoxantrone for 24 h, and apoptosis is monitored by AnnexinV-FITC staining and flow cytometry. Overexpression of Bcl-xL protects the cells from chemotherapy-induced apoptosis.
# These Bcl-xL overexpressing cells are resistant to apoptosis induced by AG490, as predicted since the ectopic Bcl-xL is expressed from a CMV promoter and is thus independent of JAK-STAT signaling. […] These findings support one embodiment of the present invention, that Bcl-x confers resistance to chemotherapy-induced apoptosis, and therefore that inhibition of STAT3 signaling promotes chemotherapy-induced apoptosis.
smiles,measurement,setting,value
N#C/C(=C\c1ccc(O)c(O)c1)C(=O)NCc1ccccc1 [AG490],expression of Bcl-2,Bcl-2,no effect
same,constitutive STAT3 DNA-binding activity,STAT3,complete abrogation
same,IL-12-mediated nitric oxide production,peritoneal macrophages,prevents or suppressed
same,apoptosis of myeloma cells,[1],efficient apoptosis
same,cell death of IL-12-activated peritoneal macrophages,[2],no cell death is detected
same,apoptosis induced in Bcl-xL overexpressing cells,[3],resistant
